≈ marks a conversion by molar mass, not a printed value.
Columns and labels:
Assay type in all cases: functional
Enterococcus faecium [1] = experiment: Antimicrobial activity against Enterococcus faecium BM4458 after 24 hrs; details: BM4458, 24 h
Enterococcus faecium [2] = experiment: Antimicrobial activity against Enterococcus faecium BM4458 harboring plasmid PAT832 carrying P2 vanSD (K308Q I309V R335Q) aac (6)-aph (2) mutant gene after 24 hrs; details: BM4458, 24 h
Enterococcus avium = experiment: Antimicrobial activity against vancomycin and teicoplanin resistant Enterococcus avium BM4655 after 24 hrs; details: BM4655, 24 h
Enterococcus faecalis = experiment: Antimicrobial activity against vancomycin and teicoplanin resistant Enterococcus faecalis BM4654 after 24 hrs; details: BM4654, 24 h
Enterococcus faecium [3] = experiment: Antimicrobial activity against vancomycin and teicoplanin resistant Enterococcus faecium BM4339 after 24 hrs; details: BM4339, 24 h
Enterococcus faecium [4] = experiment: Antimicrobial activity against Enterococcus faecium BM4458 harboring plasmid PAT831 carrying P2 vanSD 6bp330 aac (6)-aph (2) mutant gene after 24 hrs; details: BM4458, 24 h
Enterococcus faecium [5] = experiment: Antimicrobial activity against vancomycin and teicoplanin resistant Enterococcus faecium BM4656 after 24 hrs; details: BM4656, 24 h
Enterococcus faecium [6] = experiment: Antimicrobial activity against Enterococcus faecium BM4458 harboring plasmid PAT830 carrying P2 vanSD (V67A) aac (6)-aph (2) mutant gene after 24 hrs; details: BM4458, 24 h
Enterococcus faecium [7] = experiment: Antimicrobial activity against vancomycin and teicoplanin resistant Enterococcus faecium BM4653 after 24 hrs; details: BM4653, 24 h
Enterococcus faecium [8] = experiment: Antimicrobial activity against Enterococcus faecium BM4458 harboring plasmid PAT833 carrying P2 vanSD (G340S) aac (6)-aph (2) mutant gene after 24 hrs; details: BM4458, 24 h
Enterococcus faecium [9] = experiment: Antimicrobial activity against vancomycin and teicoplanin resistant Enterococcus faecium NEF1 after 24 hrs; details: NEF1, 24 h

Row | SMILES | MIC (Enterococcus faecium [1]) [µg/mL] | MIC (Enterococcus faecium [2]) [µg/mL] | MIC (Enterococcus avium) [µg/mL] | MIC (Enterococcus faecalis) [µg/mL] | MIC (Enterococcus faecium [3]) [µg/mL] | MIC (Enterococcus faecium [4]) [µg/mL] | MIC (Enterococcus faecium [5]) [µg/mL] | MIC (Enterococcus faecium [6]) [µg/mL] | MIC (Enterococcus faecium [7]) [µg/mL] | MIC (Enterococcus faecium [8]) [µg/mL] | MIC (Enterococcus faecium [9]) [µg/mL]
1 | CC(=O)N[C@@H]1[C@H](Oc2c3cc4cc2Oc2ccc(cc2Cl)[C@@H](O[C@@H]2O[C@@H](CO)[C@@H](O)[C@H](O)[C@@H]2NC(C)=O)[C@@H]2NC(=O)[C@H](NC(=O)[C@@H]4NC(=O)[C@H]4NC(=O)[C@@H](Cc5ccc(c(Cl)c5)O3)NC(=O)[C@H](N)c3ccc(O)c(c3)Oc3cc(O)cc4c3)c3ccc(O)c(c3)-c3c(O[C@H]4O[C@H](CO)[C@@H](O)[C@@H](O)[C@@H]4O)cc(O)cc3[C@@H](C(=O)O)NC2=O)O[C@@H](CO)[C@@H](O)[C@@H]1O | 0.5 (≈ 0.283 µM) | 0.5 (≈ 0.283 µM) | 4 (≈ 2.26 µM) | 0.5 (≈ 0.283 µM) | 4 (≈ 2.26 µM) | 0.5 (≈ 0.283 µM) | 4 (≈ 2.26 µM) | 0.5 (≈ 0.283 µM) | 4 (≈ 2.26 µM) | 0.5 (≈ 0.283 µM) | 64 (≈ 36.2 µM)
2 | CN[C@H](CC(C)C)C(=O)N[C@H]1C(=O)N[C@@H](CC(N)=O)C(=O)N[C@H]2C(=O)N[C@H]3C(=O)N[C@H](C(=O)N[C@H](C(=O)O)c4cc(O)cc(O)c4-c4cc3ccc4O)[C@H](O)c3ccc(c(Cl)c3)Oc3cc2cc(c3O[C@@H]2O[C@H](CO)[C@@H](O)[C@H](O)[C@H]2O[C@H]2C[C@](C)(N)[C@H](O)[C@H](C)O2)Oc2ccc(cc2Cl)[C@H]1O [VANCOMYCIN] | 4 (≈ 2.76 µM) | 4 (≈ 2.76 µM) | 32 (≈ 22.1 µM) | 16 (≈ 11 µM) | 64 (≈ 44.2 µM) | 4 (≈ 2.76 µM) | 32 (≈ 22.1 µM) | 4 (≈ 2.76 µM) | 32 (≈ 22.1 µM) | 4 (≈ 2.76 µM) | 512 (≈ 353 µM)

From ChEMBL document CHEMBL1649197, “New combinations of mutations in VanD-Type vancomycin-resistant Enterococcus faecium, Enterococcus faecalis, and Enterococcus avium strains” (2009)
